Assay results published in patent US20230146038A1, “DIMERIZATION ASSAY” (The University of Bath, priority 2020, published 2023).

B1: basic-cJun (other)
chain: MRIKAERKRMRNRIAASKCRKRKLERIARLEEKVKTLKAQNYELASTANMLREQVAQLGAPHHHHHH
notes: also called AP-1 component; p230d-basic-cJun

How the values were obtained:
BL21 GOLD cells = assay: Aβ1-42 dimerization assay (colony growth); assay type: cell-based, E. coli; conditions: for colonies grown on test plates: M9 minimal media with Tmp and IPTG; for colonies grown on negative control plates: M9 minimal media with Tmp; for No. of colonies (CFU): 48-hour incubation
Source text: Schematic illustrating general principles of using the TBS assay to screen for inhibitors of the initial dimerization event of Aβ1-42. In bacterial cells, endogenous DHFR can be inhibited using the antibiotic trimethoprim, making cells reliant on the modified, exogenous DHFR (top panel). In this setting, if AP-1 binds to the TRE sites in the DHFR, transcription is blocked and no functional DHFR enzyme is produced, resulting in cell death (middle panel). By attaching this basic cJun region to Aβ1-42, a functional DNA binder will be created if two Aβ1-42 peptides dimerize. In the absence of an inhibitor, basic-Aβ1-42 dimerization would lead to blocking of the DHFR gene transcription, resulting in cell death (lower left hand panel). Only cells treated with a successful Aβ1-42 dimerization inhibitor would produce DHFR and so survive, allowing selection for potential therapeutics for treating Alzheimer's Disease (lower right hand panel).
BL21 GOLD cells stably expressing a pREP4 plasmid containing lac inhibitor […] gene were used for the dimerization assay, so that the lac operon could be controlled. Cells were transformed with p300d plasmid containing DHFR with 15 TRE sites under control of the lac operon (described in Example 1), and either a p230d containing Aβ1-42 or constructed basic-Aβ1-42.
BL21 from the 100 μL plates were scraped into LB and selecting antibiotics and grown to an OD600 of 0.5. 100 μL of culture was plated onto positive control, negative control and test plates, as described in Table 3 below.
A covering of cells was seen on both positive control plates, showing that BL21 cells were not affected by scraping and re-plating. Tmp was used to inhibit the endogenous, E. coli DHFR enzyme. […] Two basic-Aβ1-42 expressing colonies and one Aβ1-42 colony grew on these negative control plates. Test plates contained IPTG to bind to lac repressor protein and allow expression of the modified DHFR in the bacteria. There were 63 Aβ1-42 expressing BL21 colonies formed on these plates, which confirmed that the modified DHFR gene allows cells to grow on minimal media. Importantly, only 2 basic-Aβ1-42 expressing colonies grew on test plates, which was consistent with levels of background growth seen on negative control plates.

[1] = system: TRE's introduced within the mDHFR gene; assay: Transcription-Block Survival (TBS) assay with basic-cJun; assay type: cell-based, E. coli; conditions: M9 minimal media with Tmp and IPTG, protein overexpressed on second plasmid with mDHFR containing 15 TREs
Source text: Fifteen TREs have been introduced into the mDHFR gene. A) The changes to the DNA sequence result in a fully active protein that expresses, folds, and confers survival in M9 minimal media using trimethoprim (TMP) to inhibit bacterial DHFR. […] Expressing mDHFR with IPTG (right hand side plates), generates colonies in A) but not B).
It was next necessary to establish that introduction of an AP-1 component (in this case basic-cJun) would result in binding to the 15 TRE's introduced within the mDHFR gene and therefore failure of the gene to be transcribed.
Three plasmids were used for this assay. These are i) p300-mDHFR (Cm; SEQ ID NO: 42) to express the […] sequence containing mDHFR, which is under control of the lac-operon; ii) p230d-basic-cJun (Amp; SEQ ID NO: 43) which is also under control of the lac-operon; iii) pREP4 (Kan; SEQ ID NO: 44) to express the lac repressor.
Cells were grown under non-selective conditions (i.e. LB/LB agar) containing Cm/Amp/Kan up until the time of the Assay. During TBS Selection Cells are grown in M9 minimal media (Agar or Broth) in the presence of Cm/Amp/Kan, as well as Tmp (to inhibit the bacterial copies of DHFR) and IPTG (to induce expression of mDHFR and bZIP proteins). […]

[2] = biological target: the molecule itself; assay: TBS cell survival assay in E. coli, colony formation on M9 agar
Procedure: Cells were grown under non-selective conditions (i.e. LB/LB agar) containing Cm/Amp/Kan up until the time of the Assay. During TBS Selection Cells are grown in M9 minimal media (Agar or Broth) in the presence of Cm/Amp/Kan, as well as Tmp (to inhibit the bacterial copies of DHFR) and IPTG (to induce expression of mDHFR and bZIP proteins). During Assay selection, media-lacking ITPG is used to serve as a negative control to ensure that cell survival is exclusively driven by the loss on interaction between bZIP target protein and the consensus sequences located within the mDHFR gene.

[3] = Negative control plate: M9 minimal agar, 3.4 μM Tmp, no IPTG
[4] = Positive control plate: LB agar, Cm, Kan and Amp
[5] = Test plate: M9 minimal agar, 3.4 μM Tmp, 1 mM IPTG

Row | Molecule | colonies grown on test plates (BL21 GOLD cells) [colonies] | colonies grown on negative control plates (BL21 GOLD cells; no IPTG) | No. of colonies (CFU) (BL21 GOLD cells; [3]) | No. of colonies (CFU) (BL21 GOLD cells; [4]) | No. of colonies (CFU) (BL21 GOLD cells; [5]) | bacterial colony formation in minimal media [1] | bacterial colony formation in minimal media ([1]; listed as Basic-cJun) | binding result [2]
1 | Aβ1-42: amyloid-β peptide having 42 amino acids (SEQ ID NO: 49), expressed without the basic cJun region [reference compound] | 63 | one | 1 | Covered | 63 |  |  | 
2 | basic-Aβ1-42: fusion protein of the basic cJun region and Aβ1-42 (SEQ ID NO: 51) | 2 | Two | 2 | Covered | 2 |  |  | 
3 | B1 |  |  |  |  |  | complete loss of bacterial colonies | no colonies grow | binds
